Among the test systems are HCC-2998 colon; TK-10 renal; SW-620 colon; M14 melanoma; UACC-257 melanoma; OVCAR-5 ovarian; OVCAR-8 ovarian; UACC-62 melanoma; SF-295 CNS; NCI-H23 lung; SNB-19 CNS; IGROV1 ovarian; SK-MEL-5 melanoma; 786-0 renal; RXF 393 renal; KM12 colon; HS 578T breast.
Holding throughout (experiment): NCI tumour cell line growth inhibition, 48 h

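The compound was tested at five concentrations on cells cultured in 96-well plates, with a 48-hour exposure period. TGI is the concentration that stops growth completely.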

This is an account of results in PubChem BioAssay (NCI).

For `CC(C)(C)OC(=O)NCCNCCNc1ccccc1`, the TGI with HCC-2998 colon, with TK-10 renal, in the assay on SW-620 colon, in the assay with M14 melanoma, in the assay on UACC-257 melanoma and with OVCAR-5 ovarian was greater than 100 µM in each case. For the same compound, the TGI in the assay with OVCAR-8 ovarian, in the assay with UACC-62 melanoma, in the assay on SF-295 CNS, in the assay on NCI-H23 lung, in the assay with SNB-19 CNS and in the assay on IGROV1 ovarian was greater than 100 µM each time. For the same compound, the TGI with SK-MEL-5 melanoma, in the assay with 786-0 renal, with RXF 393 renal and in the assay on KM12 colon was greater than 100 µM in each case.
With `Cn1c2ccccc2c(=O)c2cccc(C(=O)NCC(=O)O)c21`, the TGI with HS 578T breast, in the assay with HCC-2998 colon, in the assay on TK-10 renal, in the assay with SW-620 colon, with M14 melanoma and in the assay on UACC-257 melanoma was greater than 100 µM each time. The TGI with OVCAR-5 ovarian, in the assay on OVCAR-8 ovarian, in the assay with UACC-62 melanoma, in the assay on SF-295 CNS, in the assay with NCI-H23 lung and in the assay on SNB-19 CNS was greater than 100 µM throughout. In addition, the TGI with IGROV1 ovarian, with SK-MEL-5 melanoma, in the assay on 786-0 renal and in the assay with KM12 colon was greater than 100 µM in each case.
For `CSC1=NNC(SC)=NN1`, the TGI is 0.38 µM in the assay on HS 578T breast; greater than 1 µM in the assay with HCC-2998 colon; 0.357 µM with TK-10 renal; 0.307 µM in the assay with SW-620 colon; 0.335 µM in the assay on M14 melanoma; 0.258 µM in the assay with UACC-257 melanoma. Moreover, the TGI with OVCAR-5 ovarian came out at 0.324 µM; with OVCAR-8 ovarian, 0.812 µM; in the assay with UACC-62 melanoma, 0.29 µM; with SF-295 CNS, 0.34 µM; in the assay on NCI-H23 lung it was 0.7 µM; with SNB-19 CNS it was 0.336 µM. The TGI was determined as 0.302 µM in the assay on IGROV1 ovarian, 0.354 µM in the assay with SK-MEL-5 melanoma, 0.328 µM in the assay on 786-0 renal and 0.376 µM in the assay with KM12 colon.
Turning to `COc1ccc(NC(=O)C(C)Oc2ccc(OCC3CCCCC3)cc2)cc1` (centres undefined), the TGI with HCC-2998 colon, in the assay with TK-10 renal, in the assay on M14 melanoma, in the assay on UACC-257 melanoma, in the assay on OVCAR-8 ovarian and with UACC-62 melanoma was greater than 100 µM each time. For the same compound, the TGI was 68.3 µM with NCI-H23 lung; greater than 100 µM in the assay on SNB-19 CNS; greater than 100 µM with IGROV1 ovarian; greater than 100 µM in the assay with SK-MEL-5 melanoma; greater than 100 µM in the assay with 786-0 renal; greater than 100 µM with RXF 393 renal. In addition, the TGI with KM12 colon was greater than 100 µM.
Take `O=C1c2ccccc2C(=O)C1C(c1ccc(F)cc1)C1C(=O)c2ccccc2C1=O`: the TGI in the assay on HCC-2998 colon, in the assay on TK-10 renal, in the assay on SW-620 colon, in the assay with M14 melanoma, with UACC-257 melanoma and with OVCAR-5 ovarian was greater than 100 µM each time. For the same compound, the TGI with OVCAR-8 ovarian, in the assay with UACC-62 melanoma, in the assay on SF-295 CNS, in the assay on NCI-H23 lung, in the assay on SNB-19 CNS and with SK-MEL-5 melanoma was greater than 100 µM in each case. Moreover, the TGI was greater than 100 µM in the assay with 786-0 renal, 71.3 µM in the assay on RXF 393 renal and greater than 100 µM in the assay on KM12 colon.
As to `Cc1ccc(OCC2OC(n3cnc4c(Cl)nc(Cl)nc43)CC2Oc2ccc(C)cc2)cc1` (centres undefined), the TGI was 5.21 µM in the assay on HS 578T breast; 30.8 µM in the assay with HCC-2998 colon; 23.3 µM with TK-10 renal; greater than 100 µM in the assay on SW-620 colon; 3.99 µM with M14 melanoma; 6.59 µM in the assay with UACC-257 melanoma. Further, the TGI with OVCAR-5 ovarian is 19.1 µM; in the assay with OVCAR-8 ovarian, 5.39 µM; in the assay on UACC-62 melanoma, 4.1 µM; in the assay with SF-295 CNS it was 5.42 µM; in the assay on NCI-H23 lung it was 3.91 µM; with SNB-19 CNS, 3.3 µM. The TGI in the assay on IGROV1 ovarian was 4.48 µM; with SK-MEL-5 melanoma, 19.2 µM; with 786-0 renal it was 32.4 µM; in the assay with KM12 colon it was 3.09 µM.
As for `C=C(C(=C)N1N=NC2C3CCC(C3)C21)N1N=NC2C3CCC(C3)C21` (centres undefined), the TGI in the assay on HCC-2998 colon, with TK-10 renal, in the assay on SW-620 colon, in the assay on M14 melanoma, in the assay with UACC-257 melanoma and in the assay on OVCAR-5 ovarian was greater than 100 µM in each case. The TGI in the assay on OVCAR-8 ovarian, with UACC-62 melanoma, in the assay with SF-295 CNS, with NCI-H23 lung, with SNB-19 CNS and in the assay with IGROV1 ovarian was greater than 100 µM each time. In addition, the TGI with SK-MEL-5 melanoma, in the assay on 786-0 renal, in the assay with RXF 393 renal and in the assay on KM12 colon was greater than 100 µM in each case.
Regarding `Oc1c(Br)cc(/C=C/c2cccc(/C=C/c3cc(Br)c(O)c(Br)c3)n2)cc1Br`, the TGI with HS 578T breast is 66.9 µM; in the assay on HCC-2998 colon, 18.8 µM; in the assay on TK-10 renal it was 56.3 µM; with SW-620 colon, 50.6 µM; in the assay on M14 melanoma, 34.9 µM; in the assay on UACC-257 melanoma it was 37.2 µM. Further, the TGI was 32.3 µM in the assay on OVCAR-5 ovarian; 41.7 µM in the assay with OVCAR-8 ovarian; 41.8 µM with UACC-62 melanoma; 47.4 µM with SF-295 CNS; 29.4 µM with SNB-19 CNS; 27.7 µM with IGROV1 ovarian. The TGI came to 19.8 µM in the assay with SK-MEL-5 melanoma, 28 µM in the assay on 786-0 renal and 25.2 µM with KM12 colon.
`COC(=O)C1Cc2ccc3c(c2C1=O)CCCC3` (centres undefined): the TGI in the assay on HS 578T breast, in the assay with HCC-2998 colon, in the assay with TK-10 renal, in the assay with SW-620 colon, with M14 melanoma and in the assay on UACC-257 melanoma was greater than 100 µM each time. Further, the TGI in the assay with OVCAR-5 ovarian, in the assay with OVCAR-8 ovarian, with UACC-62 melanoma, in the assay on SF-295 CNS, in the assay on NCI-H23 lung and in the assay with SNB-19 CNS was greater than 100 µM throughout. The TGI in the assay with IGROV1 ovarian, with SK-MEL-5 melanoma, in the assay on 786-0 renal and with KM12 colon was greater than 100 µM each time.
